Source: US20230024778A1, “STRIGOLACTONE RECEPTOR INHIBITOR, AGRICULTURAL COMPOSITION AND USE THEREOF, STRIGA SEED GERMINATION INHIBITOR, AND TRIAZOLE UREA COMPOUND” (The University of Tokyo, priority 2017, published 2023)

Tested on: seeds of Striga (Striga hermonthica)
Assay: Germination inhibition test of Striga seeds
Format: in vivo
Procedure: The coadministration of the GR24 or the GR24 and the compound 25 was performed on seeds of Striga (Striga hermonthica) pretreated for one week at 30° C. The GR24 treatment was performed with 0.1 μM, and the compound 25 treatment was performed with 50 μM or 100 μM.

Question: Which “germination of the Striga seeds” value (GR24 0.1 μM added) does the source give for `CC1=CC(O/C=C2/C(=O)O[C@@H]3c4ccccc4C[C@H]23)OC1=O` (some centres unmarked) [GR24] here?
Answer: germination of the Striga seeds is accelerated

Question: And the “Germination rate of striga seed” value (GR24 0.1 μM alone, compound 25 0 μM)?
Answer: 30.92%
